Measurements reported in ChEMBL document CHEMBL4507270 (2021).
Activity calls are given as the source filed them. The rule behind the calls is not given here.

Key:
[1] = molecular target: Inhibitor of nuclear factor kappa-B kinase subunit beta (Homo sapiens) (UniProt O14920)
[2] = molecular target: Serine/threonine-protein kinase WNK2 (Homo sapiens) (UniProt Q9Y3S1)
[3] = molecular target: MAP/microtubule affinity-regulating kinase 4 (Homo sapiens) (UniProt Q96L34)
[4] = molecular target: Casein kinase II subunit alpha (Homo sapiens) (UniProt P68400)
[5] = molecular target: Serine/threonine-protein kinase Nek1 (Homo sapiens) (UniProt Q96PY6)
[6] = molecular target: Casein kinase I isoform epsilon (Homo sapiens) (UniProt P49674)
[7] = molecular target: Myosin-IIIb (Homo sapiens) (UniProt Q8WXR4)
[8] = molecular target: Serine/threonine-protein kinase MAK (Homo sapiens) (UniProt P20794)
[9] = molecular target: Serine/threonine-protein kinase 33 (Homo sapiens) (UniProt Q9BYT3)
[10] = molecular target: Serine/threonine-protein kinase ICK (Homo sapiens) (UniProt Q9UPZ9)
[11] = molecular target: Serine/threonine-protein kinase mTOR (Homo sapiens) (UniProt P42345)
[12] = molecular target: T1, Discoidin domain-containing receptor 2 (Homo sapiens, UniProt Q16832); assay: NanoBRET assay (SGC Frankfurt) with DDR2
T1 sequence (Q16832 whole entry): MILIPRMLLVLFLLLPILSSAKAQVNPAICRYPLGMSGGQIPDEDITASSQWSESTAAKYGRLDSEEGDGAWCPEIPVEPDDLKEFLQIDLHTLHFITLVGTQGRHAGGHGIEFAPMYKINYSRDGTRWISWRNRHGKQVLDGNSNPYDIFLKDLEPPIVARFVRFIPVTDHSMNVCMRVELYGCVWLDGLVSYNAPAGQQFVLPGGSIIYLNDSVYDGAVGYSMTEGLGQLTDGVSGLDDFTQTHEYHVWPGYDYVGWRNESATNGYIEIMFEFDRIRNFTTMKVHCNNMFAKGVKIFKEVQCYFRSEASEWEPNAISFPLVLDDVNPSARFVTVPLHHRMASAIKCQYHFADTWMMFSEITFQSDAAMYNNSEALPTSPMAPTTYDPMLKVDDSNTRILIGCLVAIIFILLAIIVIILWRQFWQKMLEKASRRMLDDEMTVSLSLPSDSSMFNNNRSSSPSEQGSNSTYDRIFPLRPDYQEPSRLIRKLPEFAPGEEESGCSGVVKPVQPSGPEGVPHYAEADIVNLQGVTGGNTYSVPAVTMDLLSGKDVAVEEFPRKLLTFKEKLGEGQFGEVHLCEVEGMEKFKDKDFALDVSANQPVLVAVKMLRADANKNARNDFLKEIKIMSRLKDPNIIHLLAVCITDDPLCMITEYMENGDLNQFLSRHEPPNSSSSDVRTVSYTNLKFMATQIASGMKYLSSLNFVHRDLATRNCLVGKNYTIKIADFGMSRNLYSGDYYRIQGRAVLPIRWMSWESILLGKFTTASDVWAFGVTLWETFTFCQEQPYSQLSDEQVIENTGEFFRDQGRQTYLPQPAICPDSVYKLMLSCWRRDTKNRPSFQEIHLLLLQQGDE

[13] = molecular target: Calcium/calmodulin-dependent protein kinase kinase 2 (Homo sapiens) (UniProt Q96RR4)
[14] = molecular target: Serine/threonine-protein kinase NIM1 (Homo sapiens) (UniProt Q8IY84)
[15] = molecular target: 5-hydroxytryptamine receptor 2B (Homo sapiens, UniProt P41595); details: Compound concentration 10.0 uM
[16] = molecular target: Proto-oncogene tyrosine-protein kinase receptor Ret (Homo sapiens) (UniProt P07949)
[17] = molecular target: Serine/threonine-protein kinase BRSK1 (Homo sapiens) (UniProt Q8TDC3)
[18] = molecular target: Ephrin type-B receptor 2 (Homo sapiens) (UniProt P29323)
[19] = molecular target: Protein-tyrosine kinase 6 (Homo sapiens) (UniProt Q13882)
[20] = molecular target: Cyclin-dependent kinase 9 (Homo sapiens) (UniProt P50750)
[21] = molecular target: Serine/threonine-protein kinase ULK2 (Homo sapiens) (UniProt Q8IYT8)
[22] = molecular target: Serine/threonine-protein kinase pim-3 (Homo sapiens) (UniProt Q86V86)
[23] = molecular target: Mitogen-activated protein kinase kinase kinase 19 (Homo sapiens) (UniProt Q56UN5)
[24] = molecular target: cAMP-dependent protein kinase catalytic subunit alpha (Homo sapiens) (UniProt P17612)
[25] = molecular target: Ephrin type-A receptor 5 (Homo sapiens) (UniProt P54756)
[26] = molecular target: G protein-coupled receptor kinase 4 (Homo sapiens) (UniProt P32298)
[27] = molecular target: Ephrin type-B receptor 6 (Homo sapiens) (UniProt O15197)
[28] = molecular target: Cyclin-dependent kinase 15 (Homo sapiens) (UniProt Q96Q40)
[29] = molecular target: Mitogen-activated protein kinase kinase kinase 20 (Homo sapiens) (UniProt Q9NYL2)
[30] = system: Tyrosine-protein kinase ABL1 (Homo sapiens), P00519 [F317L]
[31] = molecular target: Phosphatidylinositol 4-phosphate 5-kinase type-1 gamma (Homo sapiens) (UniProt O60331)
[32] = molecular target: Serine/threonine-protein kinase PAK 2 (Homo sapiens) (UniProt Q13177)
[33] = molecular target: Ribosomal protein S6 kinase beta-1 (Homo sapiens) (UniProt P23443)
[34] = molecular target: Tyrosine-protein kinase SYK (Homo sapiens) (UniProt P43405)
[35] = Compound concentration 1000.0 nM
[36] = Compound concentration 100.0 nM

Chain of Serine/threonine-protein kinase 33 (Homo sapiens) (Q9BYT3 whole entry, looked up): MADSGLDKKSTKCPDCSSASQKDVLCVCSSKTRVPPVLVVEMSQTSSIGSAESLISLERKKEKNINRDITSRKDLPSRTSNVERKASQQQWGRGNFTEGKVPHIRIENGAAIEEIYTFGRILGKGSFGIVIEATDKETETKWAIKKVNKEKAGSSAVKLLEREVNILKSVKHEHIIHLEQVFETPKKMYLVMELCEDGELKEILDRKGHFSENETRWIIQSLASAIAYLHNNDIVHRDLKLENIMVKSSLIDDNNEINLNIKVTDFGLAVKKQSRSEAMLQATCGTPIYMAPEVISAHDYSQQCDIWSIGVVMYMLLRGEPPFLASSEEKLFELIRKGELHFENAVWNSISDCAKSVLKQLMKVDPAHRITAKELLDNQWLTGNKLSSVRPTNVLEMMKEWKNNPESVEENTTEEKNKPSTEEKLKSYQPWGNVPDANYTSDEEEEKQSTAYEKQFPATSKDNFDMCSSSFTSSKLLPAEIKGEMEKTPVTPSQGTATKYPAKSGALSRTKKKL
Chain of Ribosomal protein S6 kinase beta-1 (Homo sapiens) (P23443 whole entry, looked up): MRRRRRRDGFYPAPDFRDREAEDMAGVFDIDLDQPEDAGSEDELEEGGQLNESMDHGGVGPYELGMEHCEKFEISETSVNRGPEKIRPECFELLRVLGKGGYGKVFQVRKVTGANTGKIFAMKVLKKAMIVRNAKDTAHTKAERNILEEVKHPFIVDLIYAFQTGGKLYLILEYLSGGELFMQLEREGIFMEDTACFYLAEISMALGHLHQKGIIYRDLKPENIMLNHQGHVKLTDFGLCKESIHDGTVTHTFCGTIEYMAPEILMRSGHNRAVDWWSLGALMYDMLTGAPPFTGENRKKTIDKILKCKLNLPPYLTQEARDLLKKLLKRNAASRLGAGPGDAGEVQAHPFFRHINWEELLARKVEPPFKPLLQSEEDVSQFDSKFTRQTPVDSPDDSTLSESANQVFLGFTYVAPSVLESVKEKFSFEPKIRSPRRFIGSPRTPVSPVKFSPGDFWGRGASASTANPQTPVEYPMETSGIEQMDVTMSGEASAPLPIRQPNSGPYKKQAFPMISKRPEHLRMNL
Chain of Inhibitor of nuclear factor kappa-B kinase subunit beta (Homo sapiens) (O14920 whole entry): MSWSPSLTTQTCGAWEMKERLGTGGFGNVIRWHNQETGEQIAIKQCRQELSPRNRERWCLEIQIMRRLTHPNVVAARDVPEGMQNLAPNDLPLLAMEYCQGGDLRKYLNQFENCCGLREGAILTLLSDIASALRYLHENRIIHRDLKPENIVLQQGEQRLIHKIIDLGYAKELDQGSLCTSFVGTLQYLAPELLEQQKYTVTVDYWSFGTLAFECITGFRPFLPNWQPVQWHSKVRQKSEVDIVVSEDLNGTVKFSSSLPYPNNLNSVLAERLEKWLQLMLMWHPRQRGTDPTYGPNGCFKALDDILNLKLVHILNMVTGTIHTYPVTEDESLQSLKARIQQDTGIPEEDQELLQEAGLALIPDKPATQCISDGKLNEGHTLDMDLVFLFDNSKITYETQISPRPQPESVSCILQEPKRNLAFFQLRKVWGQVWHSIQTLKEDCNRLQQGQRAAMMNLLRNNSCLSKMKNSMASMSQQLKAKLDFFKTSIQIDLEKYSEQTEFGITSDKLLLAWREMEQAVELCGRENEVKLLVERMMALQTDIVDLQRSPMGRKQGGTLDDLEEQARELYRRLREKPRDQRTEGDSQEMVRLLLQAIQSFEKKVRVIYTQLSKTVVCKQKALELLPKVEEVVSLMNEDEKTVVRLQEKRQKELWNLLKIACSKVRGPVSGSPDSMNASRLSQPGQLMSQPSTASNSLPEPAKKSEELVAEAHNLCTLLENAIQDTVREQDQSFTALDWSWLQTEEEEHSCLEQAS
Chain of Mitogen-activated protein kinase kinase kinase 19 (Homo sapiens) (Q56UN5 whole entry): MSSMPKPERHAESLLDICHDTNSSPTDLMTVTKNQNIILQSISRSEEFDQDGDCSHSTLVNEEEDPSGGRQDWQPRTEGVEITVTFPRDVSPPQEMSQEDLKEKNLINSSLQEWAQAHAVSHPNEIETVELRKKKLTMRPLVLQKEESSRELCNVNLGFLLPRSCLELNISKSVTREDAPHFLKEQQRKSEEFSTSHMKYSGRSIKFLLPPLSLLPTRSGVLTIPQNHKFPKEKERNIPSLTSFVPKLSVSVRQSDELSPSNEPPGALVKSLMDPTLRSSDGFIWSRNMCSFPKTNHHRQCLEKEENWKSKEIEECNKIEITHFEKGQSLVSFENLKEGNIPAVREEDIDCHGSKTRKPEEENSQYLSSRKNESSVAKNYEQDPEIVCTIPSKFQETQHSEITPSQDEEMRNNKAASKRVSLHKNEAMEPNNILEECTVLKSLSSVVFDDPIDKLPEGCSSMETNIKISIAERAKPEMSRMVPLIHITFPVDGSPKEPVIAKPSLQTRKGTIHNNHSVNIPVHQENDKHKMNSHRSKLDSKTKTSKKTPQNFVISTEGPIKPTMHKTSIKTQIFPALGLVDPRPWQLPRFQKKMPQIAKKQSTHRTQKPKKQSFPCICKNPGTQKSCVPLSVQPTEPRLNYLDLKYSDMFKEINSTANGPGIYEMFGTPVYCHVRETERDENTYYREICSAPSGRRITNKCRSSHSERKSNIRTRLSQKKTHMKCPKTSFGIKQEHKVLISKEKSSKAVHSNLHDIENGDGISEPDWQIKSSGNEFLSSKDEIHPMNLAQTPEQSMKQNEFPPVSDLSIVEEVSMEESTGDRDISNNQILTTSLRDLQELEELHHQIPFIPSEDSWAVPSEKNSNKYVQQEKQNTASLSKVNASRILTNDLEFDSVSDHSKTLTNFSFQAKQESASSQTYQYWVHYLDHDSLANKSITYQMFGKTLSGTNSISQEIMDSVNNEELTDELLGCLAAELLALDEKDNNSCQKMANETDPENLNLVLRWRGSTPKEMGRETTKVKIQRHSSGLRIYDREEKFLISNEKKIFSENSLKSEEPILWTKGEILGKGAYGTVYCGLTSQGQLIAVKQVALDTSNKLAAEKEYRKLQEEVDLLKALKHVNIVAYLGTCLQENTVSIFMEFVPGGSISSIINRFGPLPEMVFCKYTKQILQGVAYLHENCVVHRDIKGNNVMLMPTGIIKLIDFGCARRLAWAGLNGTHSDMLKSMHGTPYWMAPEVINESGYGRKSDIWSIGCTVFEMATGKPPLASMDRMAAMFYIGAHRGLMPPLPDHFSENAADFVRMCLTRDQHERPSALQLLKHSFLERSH
Chain of Casein kinase II subunit alpha (Homo sapiens) (P68400 whole entry, looked up): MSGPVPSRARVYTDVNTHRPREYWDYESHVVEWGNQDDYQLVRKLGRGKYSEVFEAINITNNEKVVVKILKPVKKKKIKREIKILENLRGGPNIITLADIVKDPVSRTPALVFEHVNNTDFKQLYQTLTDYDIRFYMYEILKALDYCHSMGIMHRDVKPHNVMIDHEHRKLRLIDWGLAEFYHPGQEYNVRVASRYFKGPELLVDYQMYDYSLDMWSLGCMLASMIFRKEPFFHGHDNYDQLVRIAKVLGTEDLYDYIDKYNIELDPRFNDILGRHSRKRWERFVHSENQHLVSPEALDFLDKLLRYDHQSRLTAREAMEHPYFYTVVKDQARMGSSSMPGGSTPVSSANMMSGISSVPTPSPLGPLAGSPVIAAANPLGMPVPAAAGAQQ
Chain of 5-hydroxytryptamine receptor 2B (P41595 whole entry): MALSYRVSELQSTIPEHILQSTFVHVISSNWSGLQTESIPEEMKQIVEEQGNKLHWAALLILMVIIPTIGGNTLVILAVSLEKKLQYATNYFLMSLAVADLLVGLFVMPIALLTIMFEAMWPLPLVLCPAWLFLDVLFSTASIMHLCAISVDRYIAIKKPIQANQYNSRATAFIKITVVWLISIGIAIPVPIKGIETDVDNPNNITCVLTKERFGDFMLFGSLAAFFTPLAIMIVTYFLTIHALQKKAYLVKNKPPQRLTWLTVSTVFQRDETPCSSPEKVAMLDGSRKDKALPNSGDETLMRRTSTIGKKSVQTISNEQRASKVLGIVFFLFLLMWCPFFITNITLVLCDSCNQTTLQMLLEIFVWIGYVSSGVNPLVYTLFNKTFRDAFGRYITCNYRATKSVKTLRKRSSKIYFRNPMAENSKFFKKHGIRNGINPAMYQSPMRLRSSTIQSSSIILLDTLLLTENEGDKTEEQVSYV
Chain of Serine/threonine-protein kinase PAK 2 (Homo sapiens) (Q13177 whole entry): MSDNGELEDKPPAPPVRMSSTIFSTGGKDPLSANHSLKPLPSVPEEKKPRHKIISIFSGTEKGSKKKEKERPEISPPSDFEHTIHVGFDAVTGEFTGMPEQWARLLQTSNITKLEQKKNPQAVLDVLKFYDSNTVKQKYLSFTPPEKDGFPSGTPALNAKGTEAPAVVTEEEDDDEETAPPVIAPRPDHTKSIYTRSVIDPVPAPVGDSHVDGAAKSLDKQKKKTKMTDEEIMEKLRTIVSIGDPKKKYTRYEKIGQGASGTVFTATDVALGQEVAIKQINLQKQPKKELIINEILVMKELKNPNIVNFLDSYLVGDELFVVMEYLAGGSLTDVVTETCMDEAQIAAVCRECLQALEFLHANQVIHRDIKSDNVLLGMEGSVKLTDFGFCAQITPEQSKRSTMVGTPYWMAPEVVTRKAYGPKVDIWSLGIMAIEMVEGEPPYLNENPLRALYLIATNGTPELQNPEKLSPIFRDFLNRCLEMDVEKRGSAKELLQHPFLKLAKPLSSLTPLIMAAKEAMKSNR
Chain of Casein kinase I isoform epsilon (Homo sapiens) (P49674 whole entry, looked up, canonical isoform): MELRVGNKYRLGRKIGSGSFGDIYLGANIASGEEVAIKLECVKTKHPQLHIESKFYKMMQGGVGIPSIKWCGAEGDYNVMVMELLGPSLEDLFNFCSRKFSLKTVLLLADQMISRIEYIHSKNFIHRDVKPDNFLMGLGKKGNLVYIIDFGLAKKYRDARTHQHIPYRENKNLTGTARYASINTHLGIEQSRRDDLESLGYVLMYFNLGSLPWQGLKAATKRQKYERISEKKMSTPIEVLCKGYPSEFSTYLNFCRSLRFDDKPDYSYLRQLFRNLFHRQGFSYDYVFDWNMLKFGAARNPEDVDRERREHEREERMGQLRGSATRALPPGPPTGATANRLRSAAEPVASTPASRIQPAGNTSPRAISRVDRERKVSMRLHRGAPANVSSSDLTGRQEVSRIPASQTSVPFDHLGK

In the case of `Cc1cc(NC(=O)c2cccc(S(F)(F)(F)(F)F)c2)cc(-n2ccn3nc(-c4cccnc4)cc23)c1` [BAY-309], the residual activity [1, 35] is reported as 65.5%, the residual activity [2, 35] is reported as 100% and the residual activity [3, 35] is reported as 84.8%. The residual activity [4, 35] was 66.7%, the residual activity [5, 35] was 100% and the residual activity [6, 35] was 75.7%. The residual activity [7, 35] was 73.8%, the residual activity [8, 35] was 100% and the residual activity [9, 35] was 87.8%. For the same molecule, the residual activity [10, 35] was 64.2%, the residual activity [11, 35] was 99.2% and the EC50 [12] was 2700 nM (not active). The IC50 [12] was 9300 nM (not active), the residual activity [13, 35] was 99.6% and the residual activity [14, 35] was 100%. It also gave an inhibition [15] of 60.4%, a residual activity [16, 35] of 100% and a residual activity [17, 35] of 100%. For the same molecule, the residual activity [18, 35] was 100%, the residual activity [19, 35] was 100% and the residual activity [20, 35] was 100%. The residual activity [21, 35] was 73.7%, the residual activity [22, 35] was 100% and the residual activity [23, 35] was 100%. The residual activity [24, 35] was 100%, the residual activity [25, 35] was 100% and the residual activity [26, 35] was 100%. It also gave a residual activity [27, 35] of 100%, a residual activity [28, 35] of 59.9% and a residual activity [29, 35] of 84.4%. The residual activity [30, 35] was 100%, the residual activity [31, 35] was 100% and the residual activity [32, 35] was 100%. It also gave a residual activity [33, 35] of 66.2% and a residual activity [34, 35] of 95.5%.

Molecule `Cc1cc(C)c(-n2ccn3nc(-c4cccnc4)cc23)cc1NC(=O)c1cc(C#N)cc(S(F)(F)(F)(F)F)c1` [BAY-826] has a residual activity [1, 36] of 100%, a residual activity [2, 36] of 100% and a residual activity [3, 36] of 92.4%. It also gave a residual activity [4, 36] of 74.2%, a residual activity [5, 36] of 100% and a residual activity [6, 36] of 98.7%. The residual activity [7, 36] was 82.4%, the residual activity [8, 36] was 77.2% and the residual activity [9, 36] was 100%. For the same molecule, the residual activity [10, 36] was 74.1%, the residual activity [11, 36] was 70.1% and the EC50 [12] was 0.54 nM (active). For the same molecule, the IC50 [12] was 3 nM (active), the residual activity [13, 36] was 89% and the residual activity [14, 36] was 98.9%. For the same molecule, the inhibition [15] was -7%, the residual activity [16, 36] was 82% and the residual activity [17, 36] was 84%. It also gave a residual activity [18, 36] of 71.4%, a residual activity [19, 36] of 99.5% and a residual activity [20, 36] of 85.5%. The residual activity [21, 36] was 100%, the residual activity [22, 36] was 83.1% and the residual activity [23, 36] was 99.5%. It also gave a residual activity [24, 36] of 95.6%, a residual activity [25, 36] of 92.4% and a residual activity [26, 36] of 100%. For the same molecule, the residual activity [27, 36] was 3%, the residual activity [28, 36] was 76% and the residual activity [29, 36] was 97.5%. It also gave a residual activity [30, 36] of 26.6%, a residual activity [31, 36] of 70.2% and a residual activity [32, 36] of 89.8%. For the same molecule, the residual activity [33, 36] was 93% and the residual activity [34, 36] was 100%.
